The record followed here is patent US20250032623A1, “HETEROBIFUNCTIONAL COMPOUNDS AND THEIR USE IN TREATING DISEASE” (HALDA THERAPEUTICS OPCO, INC., priority 2021, published 2025).

For one experiment, the target named is T1, KRAS G12C (Homo sapiens, UniProt P01116, G12C).
T1 construct: Kras (aa 2-169), GST; purchased Reaction Biology Corporation (RBC)
Nature of the experiment: KRAS G12C nucleotide exchange assay (SOS1 mediated, HTRF). Particulars: 1 hr pre-incubation at RT, read-out: IC50 (inhibition of KRas G12C). Type of experiment: biochemical. Here is the method: Exemplary compounds were tested for ability to inhibit KRas G12C.
KRAS target engagement (IC50 determination) was performed using a KRAS G12C nucleotide exchange assay (Reaction Biology Corporation). Specifically, compounds were tested against KRAS G12C in 10-point concentration IC50 mode with 3-fold serial dilution at a starting concentration of 10 μM. ARS1620 was used as a control. Compounds were pre-incubated with protein for 1 hr at RT. Parameters for the assay were:
In the method, Kras was mixed with a-GST Tb antibody (1.5× solution) and […] was delivered to reaction wells. Compounds were delivered using acoustic dispenser (Echo, Labcyte). Kras/aGST-Tb Ab/compound mixture was incubated for 1 hour at room temperature. A 3× solution of SOS1 and GTP* was prepared in reaction buffer. A […] aliquot of SOS1/GTP* solution was added to reaction well to initiate the exchange reaction. No—SOS1 reaction or max compound concentration was used as blank. IC50 determination was performed using a Sigmoidal dose response (variable slope) equation.

The next experiment deals with HeLa cells. Nature of the experiment: Cellular growth inhibition assay (CellTiter-Glo), HeLa cells. It counts as cell-based. Particulars: three days compound treatment, CellTiter-Glo 2.0, read-out: CTG HELA GI50. In outline:
(§1)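 GI50 derived by four-parameter regression of luminescence (CellTiter-Glo 2.0) at Day 0 and Day 3, normalized to DMSO wells. Cells (HeLa, HEK293; 500/well, DMEM plus 10% FBS) were dosed with compound dilutions 24 h post-seeding and exposed for three days at 37 °C.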
In general terms: In ATP-based viability assays light output follows the ATP content of the culture.

Experiment [1] concerns the target T2, EGFR T790M, L858R (amino acids 669-1011 Accession Number NP_005219.2) (Homo sapiens, UniProt P00533, L858R/T790M).
T2 construct: purchased Eurofins Discovery; host or cells: mammalian cells (HEK-293)
Nature of the experiment: KdELECT binding assay (Eurofins Discovery), EGFR T790M, L858R. Particulars: read-out: EGFR DM Kd. In a few lines: (§2)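 Competition binding: WT kinase as T7 phage fusion from E. coli, T790M/L858R produced in HEK-293 and DNA-tagged, incubated 1 h at room temperature with immobilized ligand beads and compound (11-point 3-fold series, 0.9% DMSO). Bead-bound kinase eluted and quantified by qPCR to derive Kd.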

The target of another experiment is T3, EGFR (Homo sapiens, UniProt P00533).
T3 construct: purchased
Nature of the experiment: KdELECT binding assay, EGFR. In a few lines:
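Competition binding: DNA- or T7 phage-tagged EGFR was incubated 1 h at room temperature with immobilized ligand beads and an 11-point 3-fold compound series (0.9% DMSO final). Bead-bound kinase was eluted and quantified by qPCR to derive Kd.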

Experiment [2] has as its target T4, EGFR WT (amino acids 669-1011, Accession Number NP_005219.2) (Homo sapiens, UniProt P00533).
T4 construct: purchased Eurofins Discovery; host or cells: bacteria (E. coli, BL21-derived, T7 phage)
Nature of the experiment: KdELECT binding assay (Eurofins Discovery), EGFR WT. In outline:
as §2

The subject of a further experiment is HEK293 cells. Nature of the experiment: Cellular growth inhibition assay (CellTiter-Glo), HEK293 cells. It counts as cell-based. Particulars: three days compound treatment, CellTiter-Glo 2.0, read-out: CTG HEK293 GI50. In a few lines:
as §1

Like-named read-outs stand apart in the source and are kept apart here.

T3 sequence (P00533 25-1210): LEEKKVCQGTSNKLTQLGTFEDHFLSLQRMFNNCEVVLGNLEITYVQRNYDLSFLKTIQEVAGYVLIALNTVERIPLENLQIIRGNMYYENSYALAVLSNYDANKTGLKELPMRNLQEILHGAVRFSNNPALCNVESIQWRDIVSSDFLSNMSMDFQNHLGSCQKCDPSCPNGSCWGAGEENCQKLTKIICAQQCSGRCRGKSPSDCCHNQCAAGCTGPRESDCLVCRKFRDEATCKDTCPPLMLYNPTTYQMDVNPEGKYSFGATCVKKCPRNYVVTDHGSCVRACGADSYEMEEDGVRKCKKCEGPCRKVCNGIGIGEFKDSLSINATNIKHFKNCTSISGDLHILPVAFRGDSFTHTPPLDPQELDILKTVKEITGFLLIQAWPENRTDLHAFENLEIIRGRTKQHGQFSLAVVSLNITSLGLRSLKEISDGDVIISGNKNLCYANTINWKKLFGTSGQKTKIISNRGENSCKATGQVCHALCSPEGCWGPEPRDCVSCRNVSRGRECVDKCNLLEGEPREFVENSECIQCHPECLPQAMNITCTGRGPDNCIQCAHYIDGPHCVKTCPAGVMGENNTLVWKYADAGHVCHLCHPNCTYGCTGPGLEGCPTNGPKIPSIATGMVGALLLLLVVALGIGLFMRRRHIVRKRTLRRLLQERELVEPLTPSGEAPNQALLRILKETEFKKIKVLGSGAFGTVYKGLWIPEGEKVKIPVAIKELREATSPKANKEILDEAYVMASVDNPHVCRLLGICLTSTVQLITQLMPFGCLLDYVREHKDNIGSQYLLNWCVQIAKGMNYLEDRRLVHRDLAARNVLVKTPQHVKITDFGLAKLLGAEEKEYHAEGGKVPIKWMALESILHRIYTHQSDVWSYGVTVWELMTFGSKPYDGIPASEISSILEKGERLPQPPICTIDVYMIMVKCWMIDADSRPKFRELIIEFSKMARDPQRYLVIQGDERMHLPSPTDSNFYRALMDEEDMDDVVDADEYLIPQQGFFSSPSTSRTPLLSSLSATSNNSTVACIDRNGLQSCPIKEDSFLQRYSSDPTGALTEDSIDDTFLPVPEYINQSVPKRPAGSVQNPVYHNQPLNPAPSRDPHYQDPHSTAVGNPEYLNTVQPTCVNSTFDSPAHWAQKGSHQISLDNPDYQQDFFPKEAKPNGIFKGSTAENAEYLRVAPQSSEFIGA
T4 sequence (P00533 669-1011): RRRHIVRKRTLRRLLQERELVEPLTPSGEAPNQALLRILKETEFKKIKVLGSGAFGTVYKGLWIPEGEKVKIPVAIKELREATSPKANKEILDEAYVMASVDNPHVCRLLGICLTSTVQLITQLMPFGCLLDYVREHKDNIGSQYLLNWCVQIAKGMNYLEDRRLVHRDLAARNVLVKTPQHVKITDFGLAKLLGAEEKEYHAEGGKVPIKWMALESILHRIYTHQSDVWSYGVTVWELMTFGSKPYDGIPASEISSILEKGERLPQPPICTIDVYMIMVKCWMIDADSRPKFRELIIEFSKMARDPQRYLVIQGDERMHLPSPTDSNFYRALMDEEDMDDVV
T2 sequence (P00533 669-1011 T790M/L858R): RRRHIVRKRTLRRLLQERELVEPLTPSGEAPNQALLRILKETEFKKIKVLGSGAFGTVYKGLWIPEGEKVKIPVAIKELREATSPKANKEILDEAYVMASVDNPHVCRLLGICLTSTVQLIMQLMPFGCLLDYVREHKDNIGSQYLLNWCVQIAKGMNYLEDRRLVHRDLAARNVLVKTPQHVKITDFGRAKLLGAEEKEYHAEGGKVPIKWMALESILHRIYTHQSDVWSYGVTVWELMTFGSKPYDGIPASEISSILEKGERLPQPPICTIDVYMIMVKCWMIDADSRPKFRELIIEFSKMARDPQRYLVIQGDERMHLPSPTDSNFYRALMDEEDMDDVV
T1 sequence (P01116 2-169 isoform P01116-2 G12C): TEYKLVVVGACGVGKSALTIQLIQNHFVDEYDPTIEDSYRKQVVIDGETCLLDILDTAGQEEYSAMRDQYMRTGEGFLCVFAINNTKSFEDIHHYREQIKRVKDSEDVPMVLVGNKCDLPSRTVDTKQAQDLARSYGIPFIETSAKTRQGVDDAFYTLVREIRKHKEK

As a reminder, the IC50 is the concentration at which inhibition is half-maximal. As to `C=C(F)C(=O)N1CCN(c2nc(OCC3CCCN3CCOCCOCCOCCOCCOCCOCCOCCOCCNC(=O)c3cccc(-c4ccc5c(N6CCOCC6C)nc(N6CCOCC6C)nc5n4)c3)nc3c2CCN(c2cccc4cccc(Cl)c24)C3)CC1CC#N` [Compound I-21, 3-[2,4-bis[(3R)-3-methylmorpholin-4-yl]pyrido[2,3-d]pyrimidin-7-yl]-N-[2-[2-[2-[2-[2-[2-[2-[2-[2-[(2S)-2-[[7-(8-chloro-1-naphthyl)-4-[(3S)-3-(cyanomethyl)-4-(2-fluoroprop-2-enoyl)piperazin-1-yl]-6,8-dihydro-SH-pyrido[3,4-d]pyrimidin-2-yl]oxymethyl]pyrrolidin-1-yl]ethoxy]ethoxy]ethoxy]ethoxy]ethoxy]ethoxy]ethoxy]ethoxy]ethyl]benzamide], the IC50 on KRAS G12C fell in the range of 100 to 1000 nM.
For orientation: GI50 means the concentration that inhibits growth by half. As usually defined, the Kd is the concentration at which binding is half-saturated. With `C=CC(=O)N[C@@H]1CN(c2nc(Nc3cn(CCCON(C)C(=O)N4N=C(c5cc(F)ccc5F)S[C@@]4(CCCN)c4ccccc4)nc3OC)c3ncn(C)c3n2)C[C@H]1F` [Compound I-135, (2S)-2-(3-aminopropyl)-5-(2,5-difluorophenyl)-N-[3-[4-[[2-[(3R,4R)-3-fluoro-4-(prop-2-enoylamino)pyrrolidin-1-yl]-9-methyl-purin-6-yl]amino]-3-methoxy-pyrazol-1-yl]propoxy]-N-methyl-2-phenyl-1,3,4-thiadiazole-3-carboxamide], the concentration for 50% growth inhibition (GI50) in the experiment on HeLa cells (Homo sapiens, 72 h) is greater than 5000 nM; with HEK293 cells (Homo sapiens, 72 h), greater than 5000 nM. For the same compound, the equilibrium dissociation constant (Kd) (in experiment [1]; at EGFR; in experiment [2]) was less than 50 nM throughout.
Take `C=CC(=O)N[C@@H]1CN(c2nc(Nc3cn(CCCN4CCN(CCCNC(=O)c5ccc(Nc6ncc7c(n6)N(C6CCCC6)[C@H](CC)C(=O)N7C)c(OC)c5)CC4)nc3OC)c3ncn(C)c3n2)C[C@H]1F` [Compound I-136, 4-[[(7R)-8-cyclopentyl-7-ethyl-5-methyl-6-oxo-7H-pteridin-2-yl]amino]-N-[3-[4-[3-[4-[[2-[(3R,4R)-3-fluoro-4-(prop-2-enoylamino)pyrrolidin-1-yl]-9-methyl-purin-6-yl]amino]-3-methoxy-pyrazol-1-yl]propyl]piperazin-1-yl]propyl]-3-methoxy-benzamide]: the GI50 was less than 500 nM in the experiment on HeLa cells (Homo sapiens, 72 h) and 500 to 1500 nM with HEK293 cells (Homo sapiens, 72 h). For the same compound, the dissociation constant (Kd) (in experiment [1]; on EGFR; in experiment [2]) was less than 50 nM throughout.
Regarding `C=CC(=O)N[C@@H]1CN(c2nc(Nc3cn(CCCN4CCN(CCCON(C)C(=O)N5N=C(c6cc(F)ccc6F)S[C@@]5(CCCN)c5ccccc5)CC4)nc3OC)c3ncn(C)c3n2)C[C@H]1F` [Compound I-137, (2S)-2-(3-aminopropyl)-5-(2,5-difluorophenyl) —N-[3-[4-[3-[4-[[2-[(3R,4R)-3-fluoro-4-(prop-2-enoylamino)pyrrolidin-1-yl]-9-methyl-purin-6-yl]amino]-3-methoxy-pyrazol-1-yl]propyl]piperazin-1-yl]propoxy]-N-methyl-2-phenyl-1,3,4-thiadiazole-3-carboxamide], the GI50 is 1500 to 5000 nM in the experiment with HeLa cells (Homo sapiens, 72 h) and greater than 5000 nM with HEK293 cells (Homo sapiens, 72 h). Further, the Kd (in experiment [1]; at EGFR; in experiment [2]) was less than 50 nM throughout.
As for `C=CC(=O)N[C@@H]1CN(c2nc(Nc3cn(CCOc4ccc(CNc5cc(N6CCCC[C@H]6CCO)nc6c(CC)cnn56)cn4)nc3OC)c3ncn(C)c3n2)C[C@H]1F` [Compound I-139, N-[(3R,4R)-1-[6-[[1-[2-[[5-1[[[3-ethyl-5-[(2S)-2-(2-hydroxyethyl)-1-piperidyl]pyrazolo[1,5-a]pyrimidin-7-yl]amino]methyl]-2-pyridyl]oxy]ethyl]-3-methoxy-pyrazol-4-yl]amino]-9-methyl-purin-2-yl]-4-fluoro-pyrrolidin-3-yl]prop-2-enamide], the concentration for 50% growth inhibition (GI50) was less than 500 nM in the experiment on HeLa cells (Homo sapiens, 72 h) and less than 500 nM in the experiment with HEK293 cells (Homo sapiens, 72 h). Further, the results for the Kd (in experiment [1]; at EGFR; in experiment [2]) were less than 50 nM, 50 to 500 nM and 50 to 500 nM, respectively.
As for `C=CC(=O)N[C@@H]1CN(c2nc(Nc3cn(CCOCCOCCOCCOCCOCCOCCOc4ccc(CNc5cc(N6CCCC[C@@H]6CCO)nc6c(CC)cnn56)cn4)nc3OC)c3ncn(C)c3n2)C[C@H]1F` [Compound I-140, N—[(3R,4R)-1-[6-[[1-[2-[2-[2-[2-[2-[2-[2-[[5-111[[[3-ethyl-5-[(2R)-2-(2-hydroxyethyl)-1-piperidyl]pyrazolo[1,5-a]pyrimidin-7-yl]amino]methyl]-2-pyridyl]oxy]ethoxy]ethoxy]ethoxy]ethoxy]ethoxy]ethoxy]ethyl]-3-methoxy-pyrazol-4-yl]amino]-9-methyl-purin-2-yl]-4-fluoro-pyrrolidin-3-yl]prop-2-enamide], the GI50 in the experiment on HeLa cells and in the experiment on HEK293 cells was less than 500 nM each time. The Kd was less than 50 nM in experiment [1], 50 to 500 nM on EGFR and 50 to 500 nM in experiment [2].
On to `C=CC(=O)Nc1cc(Nc2nccc(-c3cn(C)c4ccccc34)n2)c(OC)cc1N(C)CCN(C)CCOCCOCCOc1ccc(CNc2cc(N3CCCC[C@H]3CCO)nc3c(CC)cnn23)cn1` [Compound I-141, N-[2-[2-[2-[2-[2-[[5-[[[3-ethyl-5-[(2S)-2-(2-hydroxyethyl)-1-piperidyl]pyrazolo[1,5-a]pyrimidin-7-yl]amino]methyl]-2-pyridyl]oxy]ethoxy]ethoxy]ethyl-methyl-amino]ethyl-methyl-amino]-4-methoxy-5-[[4-(1-methylindol-3-yl)pyrimidin-2-yl]amino]phenyl]prop-2-enamide], for which the GI50 is less than 500 nM with HeLa cells (Homo sapiens, 72 h) and less than 500 nM with HEK293 cells (Homo sapiens, 72 h). The equilibrium dissociation constant (Kd) is less than 50 nM in experiment [1], 50 to 500 nM on EGFR and 50 to 500 nM in experiment [2].
In the case of `C=CC(=O)Nc1cc(Nc2nccc(-c3cn(C)c4ccccc34)n2)c(OC)cc1N(C)CCN(C)CCCN1CCN(CCCOc2ccc(CNc3cc(N4CCCC[C@H]4CCO)nc4c(CC)cnn34)cn2)CC1` [Compound I-149, N-[2-[2-[3-[4-[3-[[5-[[[3-ethyl-5-[(2S)-2-(2-hydroxyethyl)-1-piperidyl]pyrazolo[1,5-a]pyrimidin-7-yl]amino]methyl]-2-pyridyl]oxy]propyl]piperazin-1-yl]propyl-methyl-amino]ethyl-methyl-amino]-4-methoxy-5-[[4-(1-methylindol-3-yl)pyrimidin-2-yl]amino]phenyl]prop-2-enamide], the GI50 in the experiment on HeLa cells (Homo sapiens, 72 h) is less than 500 nM; in the experiment on HEK293 cells (Homo sapiens, 72 h), less than 500 nM. The Kd in experiment [1] is less than 50 nM; at EGFR it was 500 to 2500 nM; in experiment [2], 500 to 2500 nM.
Consider `C=CC(=O)N[C@@H]1CN(c2nc(Nc3cn(CCCCNS(=O)(=O)c4ccc(Nc5ncc(Br)c(Nc6cccc(F)c6C(N)=O)n5)cc4)nc3OC)c3ncn(C)c3n2)CC1F` (stereo partly drawn) [Compound I-150, 2-[[5-bromo-2-[4-[4-[4-[[2-[(4R)-3-fluoro-4-(prop-2-enoylamino)pyrrolidin-1-yl]-9-methyl-purin-6-yl]amino]-3-methoxy-pyrazol-1-yl]butylsulfamoyl]anilino]pyrimidin-4-yl]amino]-6-fluoro-benzamide], for which the GI50 is greater than 5000 nM in the experiment on HeLa cells (Homo sapiens, 72 h) and 500 to 1500 nM with HEK293 cells (Homo sapiens, 72 h). Moreover, the Kd (in experiment [1]; on EGFR; in experiment [2]) was less than 50 nM throughout.
As for `CC[C@@H]1C(=O)N(C)c2cnc(Nc3ccc(C(=O)NCCCN4CCN(CCCN(C)C/C=C/C(=O)N[C@@H]5CN(c6nc(Nc7cn(C)nc7OC)c7ncn(C)c7n6)C[C@H]5F)CC4)cc3OC)nc2N1C1CCCC1` [Compound I-152, 4-[[(7R)-8-cyclopentyl-7-ethyl-5-methyl-6-oxo-7H-pteridin-2-yl]amino]-N-[3-[4-[3-[[(E)-4-[[(3R,4R)-4-fluoro-1-1[6-1[(3-methoxy-1-methyl-pyrazol-4-yl)amino]-9-methyl-purin-2-yl]pyrrolidin-3-yl]amino]-4-oxo-but-2-enyl]-methyl-amino]propyl]piperazin-1-yl]propyl]-3-methoxy-benzamide], the GI50 is less than 500 nM in the experiment with HeLa cells (Homo sapiens, 72 h) and greater than 5000 nM in the experiment with HEK293 cells (Homo sapiens, 72 h). Besides, the Kd was less than 50 nM in experiment [1], 500 to 2500 nM on EGFR and 500 to 2500 nM in experiment [2].
